Measured values taken from article PMC6630443 (Viruses, 2019).

How the values were obtained:
persistent USUV [1] = assay type: cell-based, Usutu virus
USUV = experiment: microbe, parasite or virus in culture; assay type: cell-based; details: Usutu virus, Vero, 48 h
persistent USUV [2] = assay type: cell-based, Usutu virus; remark: listed apart in the source
in vitro = details: African green monkey
[3] = in vivo; cited from earlier work

Row | SMILES | Day by which infectious virus in the cellular supernatant is completely extinct (persistent USUV [1]) | Decrease in virus titers and RNA levels in cellular supernatants (persistent USUV [1]) | IC50 (USUV) | Decrease in intracellular viral RNA levels (persistent USUV [2]) | CC50 (in vitro) | Plasma concentration [3] | Toxicity in words (Vero cells)
1 | NC(=O)c1nc(F)cnc1O [Favipiravir, 6-fluoro-3-hydroxy-2-pyrazinecarboxamide] | ≤ 6 days | ~ 5 log10 | 315 µM | < 2 log10 | > 2000 µM | 1500 to 2000 µM | –
2 | NC(=O)c1ncn([C@@H]2O[C@H](CO)[C@@H](O)[C@H]2O)n1 [Ribavirin, 1-(β-D-Ribofuranosyl)-1H-1,2,4-triazole-3-carboxamide] | ≤ 6 days | ~ 5 log10 | 163 µM | < 2 log10 | > 2000 µM | – | –
3 | O=c1[nH]cc(F)c(=O)[nH]1 [5-Fluorouracil, 2,4-dihydroxy-5-fluoropyrimidine] | – | – | 71 µM | – | 66 µM | – | elevated toxicity
